Measurements: US20080167319A1, “7-(4-(4-[3-CHLORO-2-(TRIFLUOROMETHYL)PHENYL]PIPERAZIN-1-YL)BUTOXY)-[1,8]-NAPHTHYRIDIN-2(1H)-ONE” (Pfizer Inc., priority 2007, published 2008)

Experiments:
[1] = molecular target: T1, h5-HT1A (CHO p-5 cells) (Homo sapiens, UniProt P08908); assay: [3H]Thymidine Uptake Assay for Serotonin 1A Intrinsic Activity; type: cell-based; conditions: relative to 1 μM (+)-8-OH-DPAT classified as 100% response; HCl salt tested
T1 construct: expressed in transfected cells
T1 sequence (P08908 1-422): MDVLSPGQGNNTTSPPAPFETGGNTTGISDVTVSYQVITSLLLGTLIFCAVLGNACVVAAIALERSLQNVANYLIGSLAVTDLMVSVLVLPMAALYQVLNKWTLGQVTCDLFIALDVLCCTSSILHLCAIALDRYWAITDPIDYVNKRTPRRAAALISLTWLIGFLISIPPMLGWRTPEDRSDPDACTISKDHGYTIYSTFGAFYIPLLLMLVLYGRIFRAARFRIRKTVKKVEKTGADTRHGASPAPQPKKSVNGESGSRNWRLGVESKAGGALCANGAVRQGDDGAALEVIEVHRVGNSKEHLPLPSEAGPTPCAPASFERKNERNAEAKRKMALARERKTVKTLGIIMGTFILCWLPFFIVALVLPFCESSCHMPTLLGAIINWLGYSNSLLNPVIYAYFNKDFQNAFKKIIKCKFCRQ
Method: 4) [^3H]Thymidine Uptake Assay for Serotonin 1A Intrinsic Activity
CHO p-5 cells transfected with h5-HT1A cDNA were seeded into 96-well plates at a density of approximately […] cells/well. These were grown for 3 days at 37° C. in an incubator with alpha minimum essential medium (αMEM) and 10% fetal calf serum containing penicillin (100 U/mL) and streptomycin (100 μg/mL). The wells were then rinsed by washing twice with 200 μL of serum-free media, and 90 μL serum-free media was added to each well. The plates were incubated for two to three hours, then 10 μL of serum-containing media (positive control), vehicle (10 μL DMSO), negative control (10 μL of an antagonist in DMSO) or different concentrations of the test compound and standards (10 μL DMSO solution) in serum-free media were added to appropriate wells. The plates were incubated for 18 hrs. Then [^3H]thymidine was added (0.5 μCi/well in 10 μL of serum-free media) after which the plates were returned to the incubator. Four hours later, trypsin (0.25%) was added (100 μL/well), and plates were returned again to the incubator. The assay was terminated 1 hr later by rapid filtration through Whatman GF/C glass fiber filters. […] Radioactivity remaining on the filters was estimated with a Wallac 1205 Betaplate liquid scintillation counter (50% efficiency). […]

[2] = molecular target: T2, Dopamine D2 Receptor (hD2L) (Homo sapiens, UniProt P14416); assay: Dopamine D2 Receptor Binding Assay ([3H]spiperone, CHO-hD2L membranes); conditions: [3H]spiperone 0.4 nM, HCl salt tested
T2 construct: expressed in transfected cells; host or cells: CHO cells (CHO-hD2L)
Method: 1) Dopamine D2 Receptor Binding Assay
[^3H]Spiperone binding to a membrane preparation from CHO-hD2L cells was carried out in 250 μL of 50 mM Tris-HCl buffer containing 100 mM NaCl, 1 mM MgCl2 and 1% DMSO at pH 7.4. Duplicate samples containing (in order of addition) the test compound, 0.4 nM [^3H]spiperone and approximately 12 μg protein were incubated for 120 min at room temperature. Bound radioligand was separated by rapid filtration under reduced pressure through Whatman GF/B glass fiber filters previously treated with 0.3% polyethyleneimine (PEI). Radioactivity retained on the filter was determined by liquid scintillation spectrophotometry. Specific binding determined in the presence of 1 mM haloperidol was 95%.

[3] = molecular target: T3, D2 receptor (CHO pro-5 cells) (Homo sapiens, UniProt P14416); assay: [3H]Thymidine Uptake Assay for Dopamine D2 Intrinsic Activity; type: cell-based; conditions: relative to 1 μM Quinpirole classified as 100% intrinsic activity; HCl salt tested
T3 construct: expressed in transfected cells; host or cells: CHO pro-5 cells
Method: 3) [^3H]Thymidine Uptake Assay for Dopamine D2 Intrinsic Activity
The assay was conducted using CHO pro-5 cells containing the D2 receptor and conventional 96-well sterile plates. Serum was removed from the cells by washing the cells twice with 200 μL of serum-free media. 90 μL serum-free media was added to each well. The plates ware incubated for two to three hours. 10 μL of serum-containing media, as a positive control, vehicle (serum-free media), antagonist control (haloperidol), or the test compound, and standards (10 μL of a 10 μM solution for a final concentration of 1 μM) in serum-free media were added to wells. The plates were returned to the incubator. Eighteen hours later [^3H]thymidine was added (0.5 μCi/well in 10 μL of serum-free media) and the plates were returned to the incubator. Four hours later trypsin (0.25%) was added (100 μL/well). The plates were returned to the incubator, once again. One hour later the assay was terminated by rapid filtration through Whatman GF/C glass fiber filters. Filters were washed four times with […] of 50 mM Tris-HCl pH 7.0 buffer, for example, using a Brandel MLR-96T cell harvester. Radioactivity remaining on the filters was estimated with a Wallac 1205 Betaplate liquid scintillation counter (50% efficiency). Intrinsic activity is defined as total uptake (1 μM Quinpirole) minus serum-free media (no uptake). […]

[4] = molecular target: T4, Serotonin 1A (5-HT1A) Receptor (Homo sapiens, UniProt P08908); assay: Serotonin 1A (5-HT1A) Receptor Binding Assay ([3H]8-OH-DPAT, transfected HeLa membranes); conditions: [3H]8-OH-DPAT 2.0 nM, transfected HeLa cell membranes; HCl salt tested
T4 construct: expressed in transfected cells; host or cells: HeLa cells
T4 sequence (P08908 1-422): T1 sequence (P08908 1-422)
Method: 2) Serotonin 1A (5-HT1A) Receptor Binding Assay
The assay was conducted in membranes prepared from HeLa cells transfected with the cDNA for […] receptors using [^3H] 8-hydroxy-2-(di-n-propylamino)-tetraline ([^3H] 8-OH-DPAT, final concentration 2.0 nM) as reference […] receptor agonist. Assay buffer consisted of 50 mM Tris-HCl with 10 mM MgSO4, 0.5 mM EDTA and 0.1% ascorbic acid, at pH 7.4 (250 μL total volume). Triplicate samples containing (in order of addition) the test compound, 100× in 100% DMSO, [^3H] 8-OH-DPAT and cell homogenate was incubated for 2 hr at room temperature. Experiments were terminated by rapid filtration through Whatman GF/B glass fiber filters soaked in assay buffer with 0.3% PEI by washing three timnes with 1 mL of wash buffer (50 mM Tris-HCl, pH 7.4) using a Brandel MLR-96T cell harvester. Specific binding (85%) was determined in the presence of 10 μM 8-OH-DPAT.

T2 sequence (P14416 whole entry): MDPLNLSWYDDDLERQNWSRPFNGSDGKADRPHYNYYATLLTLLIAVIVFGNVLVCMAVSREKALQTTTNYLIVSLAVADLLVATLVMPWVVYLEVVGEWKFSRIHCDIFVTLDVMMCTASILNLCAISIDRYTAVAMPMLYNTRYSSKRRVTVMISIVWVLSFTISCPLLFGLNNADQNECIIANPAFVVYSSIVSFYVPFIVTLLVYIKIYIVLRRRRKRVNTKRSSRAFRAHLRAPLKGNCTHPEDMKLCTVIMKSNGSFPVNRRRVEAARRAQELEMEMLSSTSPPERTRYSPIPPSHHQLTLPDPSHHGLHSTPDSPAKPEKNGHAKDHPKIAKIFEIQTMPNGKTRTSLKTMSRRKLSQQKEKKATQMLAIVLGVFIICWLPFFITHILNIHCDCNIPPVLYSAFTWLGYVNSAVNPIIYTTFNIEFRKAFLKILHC
T3 sequence (P14416 whole entry): as above

## O=c1ccc2ccc(OCCCCN3CCN(c4cccc(Cl)c4C(F)(F)F)CC3)nc2[nH]1 [compound of formula (I), 7-(4-{4-[3-chloro-2-(trifluoromethyl)phenyl]piperazine-1-yl}butoxy)-[1,8]-naphthyridin-2(1H)-one]
[1]
  Emax: 90%
[2]
  Ki: 3.9 nM
[3]
  Emax: 55%
[4]
  Ki: 4 nM
